1 compound from ChEMBL document CHEMBL1151322, “Phycomysterols and other sterols from the fungus Phycomyces blakesleeanus” (J Nat Prod, 1998) can be followed below.

Converted amounts (≈) assume the structure as drawn.

Assay [1] concerns Human immunodeficiency virus. The experiment in a line: Antiviral activity against HIV at 0.64 ug/well. In kind it is functional.
The subject of another assay is P388. The experiment in a line: Antitumor activity against mouse P388 cells. In kind it is functional, cell-based.
A short description of assay [2]: Antitumor activity against mouse SCHABEL cells. The assay is classed as functional, cell-based.
In the next assay the test system is A549. Kind of assay: Antitumor activity against human A549 cells. In kind it is functional, cell-based.
The next assay concerns HT-29. The experiment in a line: Antitumor activity against human HT-29 cells. The assay is classed as functional, cell-based.
The subject of another assay is SK-MEL-28. Kind of assay: Antitumor activity against human SK-MEL-28 cells. In kind it is functional, cell-based.

As usually defined, the IC50 is the midpoint of a concentration-inhibition curve. The low end stands for inhibition by little substance, the high end for a need for much substance. `C=C(CC[C@@H](C)[C@H]1CC[C@H]2c3ccc4c(c3CC[C@]12C)CC[C@H](O)C4)C(C)C` [PHYCOMYSTEROL A] returned an Activity in assay [1] of 64%. The IC50 amounted to 5 µg/mL (≈ 13.1 µM) with P388; 5 µg/mL (≈ 13.1 µM) in assay [2]; 10 µg/mL (≈ 26.3 µM) with A549; 10 µg/mL (≈ 26.3 µM) in the assay on HT-29; 10 µg/mL (≈ 26.3 µM) in the assay on SK-MEL-28.
